Values joined by “and” are separate entries in the source; they are usually repeats but may differ in a detail not shown here. Identical values can stand only once. Like-named read-outs stand apart in the source and are kept apart here.
Test system: L. major lysate proteins
Assay: Multitargeted bead mixture chemoproteomics, single concentration competition, proteome-wide
Type: binding
Details: for fold change / fold change relative to vehicle control: vehicle control = 1; for fold change relative to vehicle control: competition with free ligand

## CCCCCCOc1ccc(Cc2cnc(N)nc2N)cc1 [compound 1]
  fold change vs vehicle control: 0.96 and 1.16 and 1.02 and 0.84
LINJ.05.0500 ATPASE ALPHA SUBUNIT
  fold change: 1.04
LINJ.36.4570 PROTEASOME REGULATORY ATPASE SUBUNIT
  fold change: 0.72
LMJF.10.0510 GLYCEROL-3-PHOSPHATE DEHYDROGENASE NAD ], GLYCOSOMAL
  fold change: 0.92
LMJF.16.1610 PROHIBITIN
  fold change: 1.18
LMJF.18.1370 HEAT SHOCK PROTEIN, PUTATIVE
  fold change: 0.95
LMJF.19.0300 RNA BINDING PROTEIN, PUTATIVE
  fold change: 0.89
LMJF.21.0760 […]-ATP-ASE SUBUNIT 5, PUTATIVE
  fold change: 0.7
LMJF.22.0410 HYPOTHETICAL PROTEIN, CONSERVED
  fold change: 0.84
LMJF.25.1770 ENOYL-COA REDUCTASE, PUTATIVE
  fold change: 0.98
LMJF.26.0300 AMINOPEPTIDASE-LIKE PROTEIN
  fold change: 0.77
LMJF.26.2560 HYPOTHETICAL PROTEIN, CONSERVED
  fold change: 0.82
LMJF.27.1810 GLYCOSOMAL PHOSPHOENOLPYRUVATE CARBOXYKINASE, PUTATIVE
  fold change: 1.05
LMJF.28.0490 PROPIONYL-COA CARBOXYLASE BETA CHAIN, PUTATIVE
  fold change: 0.7
LMJF.29.0940 HY[…], CONSERVED
  fold change: 1.06
LMJF.29.1310 CARNITINE/CHOLINE ACETYLTRANSFERASE, PUTATIVE
  fold change: 0.99
LMJF.29.1470 HYPOTHETICAL PROTEIN, CONSERVED
  fold change: 0.73
LMJF.29.2440 HYPOTHETICAL PROTEIN, CONSERVED
  fold change: 0.88
LMJF.30.2350 SPHINGOSINE 1-PHOSPHATE LYASE
  fold change: 1.13
LMJF.30.2970 GLYCERALDEHYDE 3-PHOSPHATE DEHYDROGENASE, GLYCOSOMAL
  fold change: 1.09
LMJF.30.3390 CAS/CSE/IMPORTIN DOMAIN PROTEIN, PUTATIVE
  fold change: 0.85
LMJF.31.2650 ACETOIN DEHYDROGENASE E3 COMPONENT-LIKE PROTEIN
  fold change: 0.92
LMJF.31.2970 ACETYL-COA CARBOXYLASE, PUTATIVE
  fold change: 0.96
LMJF.33.1030 HYPOTHETICAL PROTEIN, CONSERVED
  fold change: 0.85
LMJF.33.1930 PHOSPHORIBOSYLPYROPHOSPHATE SYNTHETASE, PUTATIVE
  fold change: 0.91
LMJF.35.5040 polyadenylate-binding protein 1
  fold change: 0.93
LMJF.35.5250 ALPHA-1,2-MANNOSYLTRANSFERASE, PUTATIVE
  fold change: 0.88
LMJF.36.5100 HYPOTHETICAL PROTEIN, CONSERVED
  fold change: 0.89
LMJF.[…] RIBOSOMAL PROTEIN S7, PUTATIVE
  fold change: 1.43
Protein LINJ.03.0940 HY[…], CONSERVED
  fold change vs vehicle control: 1.24
Protein LINJ.09.0030 HYPOTHETICAL PROTEIN, CONSERVED
  fold change vs vehicle control: 0.98
Protein LINJ.11.0780 40S RIBOSOMAL PROTEIN S21, PUTATIVE
  fold change relative to vehicle control: 1.29
Protein LINJ.13.0990 PROTEASOME REGULATORY ATPASE SUBUNIT 2, PUTATIVE
  fold change: 0.79
Protein LINJ.13.1460 ALPHA TUBULIN
  fold change vs vehicle control: 1
Protein LINJ.15.0090 HEAT SHOCK PROTEIN HSLVU, ATPASE SUBUNIT HSLU, PUTATIVE
  fold change: 0.97
Protein LINJ.16.1380 […], PUTATIVE
  fold change relative to vehicle control: 1.55
Protein LINJ.19.0300 RNA BINDING PROTEIN
  fold change vs vehicle control: 1.16
Protein LINJ.20.1390 COATOMER BETA SUBUNIT, PUTATIVE
  fold change relative to vehicle control: 1.01
Protein LINJ.21.1310 40S RIBOSOMAL PROTEIN S23, PUTATIVE
  fold change vs vehicle control: 1.08
Protein LINJ.23.1680 HYPOTHETICAL PROTEIN, CONSERVED
  fold change vs vehicle control: 0.98
Protein LINJ.25.1170 […] OXIDASE VII, PUTATIVE
  fold change vs vehicle control: 1.03
Protein LINJ.25.1220 RIBOSOMAL PROTEIN S25
  fold change relative to vehicle control: 1.36
Protein LINJ.26.1080 HY[…], CONSERVED
  fold change vs vehicle control: 1.09
Protein LINJ.27.1140 HYPOTHETICAL PROTEIN, CONSERVED
  fold change vs vehicle control: 0.97
Protein LINJ.28.1100 RIBOSOMAL PROTEIN S20, PUTATIVE
  fold change vs vehicle control: 1
Protein LINJ.28.1940 REPLICATION FACTOR A, 51KDA SUBUNIT, PUTATIVE
  fold change relative to vehicle control: 1.2
Protein LINJ.31.2350 ADP-RI[…], PUTATIVE
  fold change: 1.13
Protein LINJ.34.0670 PROTEASOME REGULATORY NON-ATP-ASE SUBUNIT 11, PUTATIVE
  fold change vs vehicle control: 0.97
Protein LINJ.35.0410 40S RIBOSOMAL PROTEIN S3A, PUTATIVE
  fold change: 1.07
Protein LINJ.35.0780 CBS DOMAIN PROTEIN, CONSERVED
  fold change relative to vehicle control: 1.21
Protein LINJ.36.0510 HY[…], CONSERVED
  fold change vs vehicle control: 1.03
Protein LINJ.36.3940 40S RIBOSOMAL PROTEIN S27-1, PUTATIVE
  fold change vs vehicle control: 0.91
Protein LINJ.36.4180 HS1VU COMPLEX PROTEOLYTIC SUBUNIT-LIKE
  fold change: 0.81
Protein LINJ.36.7350 CYTOCHROME C OXIDASE SUBUNIT I
  fold change: 0.96
Protein LMJF.01.0520 LONG-CHAIN-FATTY-ACID-COA LIGASE, PUTATIVE
  fold change: 0.59
Protein LMJF.02.0460 HYPOTHETICAL PROTEIN, CONSERVED
  fold change vs vehicle control: 0.96
Protein LMJF.03.0230 LONG CHAIN FATTY ACYL COA SYNTHETASE, PUTATIVE
  fold change vs vehicle control: 1.11
Protein LMJF.03.0630 HYPOTHETICAL PROTEIN, CONSERVED
  fold change vs vehicle control: 0.95
Protein LMJF.05.0780 HY[…], CONSERVED
  fold change: 1.17
Protein LMJF.06.0010 HISTONE H4
  fold change: 1.14
Protein LMJF.06.0140 PROTEASOME BETA 6 SUBUNIT, PUTATIVE
  fold change: 0.8
Protein LMJF.06.0650 LANOSTEROL SYNTHASE, PUTATIVE
  fold change: 0.88
Protein LMJF.08.0510 RIBOSE-PHOSPHATE PYROPHOSPHOKINASE, PUTATIVE
  fold change vs vehicle control: 1.04
Protein LMJF.08.0550 TRANSLATION INITIATION FACTOR-LIKE PROTEIN
  fold change vs vehicle control: 1.1
Protein LMJF.08.1100 HY[…], CONSERVED
  fold change vs vehicle control: 1.01
Protein LMJF.09.1120 MIT[…] BINDING PROTEIN 2,MRP2, GBP25
  fold change relative to vehicle control: 1.17
Protein LMJF.09.1260 HY[…], CONSERVED
  fold change vs vehicle control: 1.16
Protein LMJF.10.1010 NUCLEOSIDE PHOSPHORYLASE-LIKE PROTEIN
  fold change: 0.72
Protein LMJF.10.1240 HYPOTHETICAL PROTEIN, CONSERVED
  fold change: 0.8
Protein LMJF.11.0130 NGG1 I[…] 3-LIKE PROTEIN
  fold change vs vehicle control: 0.99
Protein LMJF.11.0240 […] 7 SUBUNIT, PUTATIVE
  fold change vs vehicle control: 1.03
Protein LMJF.11.1050 PRETRA[…], ALPHA SUBUNIT, PUTATIVE
  fold change: 1.11
Protein LMJF.11.1110 60S RIBOSOMAL PROTEIN L28, PUTATIVE
  fold change vs vehicle control: 1.29
Protein LMJF.12.0210 […] […]1L8 3, PUTATIVE
  fold change vs vehicle control: 1.04
Protein LMJF.12.0280 ORNITHINE DECARBOXYLASE, PUTATIVE
  fold change vs vehicle control: 0.98
Protein LMJF.13.0450 HYPOTHETICAL PROTEIN, CONSERVED
  fold change vs vehicle control: 0.99
Protein LMJF.13.0870 MITOCHONDRIAL PROCESSING PEPTIDASE ALPHA SUBUNIT, PUTATIVE
  fold change vs vehicle control: 0.94
Protein LMJF.14.0130 INOSINE-GUANINE NUCLEOSIDE HYDROLASE, PUTATIVE
  fold change vs vehicle control: 0.91
Protein LMJF.14.0310 […] 3 SUBUNIT, PUTATIVE
  fold change: 1.01
Protein LMJF.14.0650 FATTY ACID ELONGASE, PUTATIVE
  fold change: 0.96
Protein LMJF.14.0660 FATTY ACID ELONGASE, PUTATIVE
  fold change: 1.11
Protein LMJF.14.0705 FATTY ACID ELONGASE, PUTATIVE
  fold change: 1.02
Protein LMJF.14.0740 FATTY ACID ELONGASE, PUTATIVE
  fold change: 1.2
Protein LMJF.14.1120 KINESIN K39, PUTATIVE
  fold change relative to vehicle control: 1.45
Protein LMJF.15.0230 LYSYL-TRNA SYNTHETASE, PUTATIVE
  fold change vs vehicle control: 1.07
Protein LMJF.15.0280 RIBONUCLEOPROTEIN P18, MIT[…], PUTATIVE
  fold change vs vehicle control: 1.04
Protein LMJF.15.1010 GLUTAMATE DEHYDROGENASE
  fold change: 1.09
Protein LMJF.16.0520 HYPOTHETICAL PROTEIN, CONSERVED
  fold change relative to vehicle control: 2.54
Protein LMJF.16.0540 ASPARTATE CARBAMOYLTRANSFERASE, PUTATIVE
  fold change: 0.89
Protein LMJF.16.0950 SUCROSE-PHOSPHATE SYNTHASE-LIKE PROTEIN
  fold change vs vehicle control: 0.99
Protein LMJF.16.0960 HYPOTHETICAL PROTEIN, CONSERVED
  fold change vs vehicle control: 0.44
Protein LMJF.16.1180 COATOMER DELTA SUBUNIT-LIKE PROTEIN
  fold change: 0.87
Protein LMJF.17.0010 HYPOTHETICAL PROTEIN, CONSERVED
  fold change: 0.88
Protein LMJF.18.0510 ACONITASE, PUTATIVE
  fold change vs vehicle control: 0.98
Protein LMJF.18.0890 RAB7 GTP BINDING PROTEIN, PUTATIVE
  fold change vs vehicle control: 0.94
Protein LMJF.18.1130 RAS-RELATED PROTEIN RAB-5, PUTATIVE
  fold change: 0.85
Protein LMJF.19.1120 PROTEASOME REGULATORY NON-ATP-ASE SUBUNIT, PUTATIVE
  fold change: 0.9
Protein LMJF.19.1160 HYPOTHETICAL PROTEIN, CONSERVED
  fold change vs vehicle control: 0.83
Protein LMJF.19.1530 PEPTIDYLPROLYL ISOMERASE-LIKE PROTEIN
  fold change vs vehicle control: 0.94
Protein LMJF.20.0100 PHOSPH[…] C, GLYCOSOMAL
  fold change: 1.04
Protein LMJF.21.0720 HY[…], CONSERVED
  fold change vs vehicle control: 1.05
Protein LMJF.21.1250 ADENYLATE KINASE, PUTATIVE
  fold change: 0.98
Protein LMJF.21.1555 HY[…], CONSERVED
  fold change: 1.01
Protein LMJF.21.1580 HY[…], UNKNOWN FUNCTION
  fold change: 1.03
Protein LMJF.21.1700 […] 2 SUBUNIT, PUTATIVE
  fold change vs vehicle control: 0.89
Protein LMJF.22.0230 AMINO ACID PERMEASE, PUTATIVE
  fold change: 1.2
Protein LMJF.22.0730 HYPOTHETICAL PROTEIN, CONSERVED
  fold change vs vehicle control: 1

From publication PMC6199744, “Development of Chemical Proteomics for the Folateome and Analysis of the Kinetoplastid Folateome” (ACS Infectious Diseases, 2018)
